Literature values as cited in patent publication US20120149888A1, “SYNTHESIS OF ARA-2'-O-METHYL-NUCLEOSIDES, CORRESPONDING PHOSPHORAMIDITES AND OLIGONUCLEOTIDES INCORPORATING NOVEL MODIFICATIONS FOR BIOLOGICAL APPLICATION IN THERAPEUCTICS, DIAGNOSTICS, G- TETRAD FORMING OLIGONUCLEOTIDES AND APTAMERS” (priority 2009, published 2012).
Where “and” joins values, the source holds several entries; their conditions need not be identical. Equal values may be shown once. Entries after “also recorded” stand apart in the source; their conditions may differ. Read-outs that look alike come from different tables or passages of the source.

Legend:
[1] = polarographically, aprotic conditions, in the presence of alpha-lipoic acid
[2] = in vivo
Raji Burkitt's lymphoma = settings: rat, in vivo
Raji leukemia = settings: mouse, in vivo
[3] = test system: seven tumors (three melanomas, one lung adenocarcinoma, one breast cancer, and two osteogenic sarcomas); settings: maximum tolerated dose, four weekly cycles of daily bolus i.v. injections for 5 days; lung carcinoma and all three malignant melanomas
[4] = test system: nucleoside carrier-dependent transport; settings: in vitro
mouse leukemia L1210 = settings: L1210 cells
[5] = test system: human nasopharyngeal KB cells
[6] = test system: 36 human tumor cell lines
[7] = test system: 11 human tumor xenografts; settings: 11 xenografts
human tumors [8] = test system: human tumors
human tumors [9] = settings: once, 3 times and 5 times weekly for 2 or 4 weeks
L1210-ara-C = L1210-ara-C (Mihich et al., 1970)
[10] = test system: equilibrative NBMPR-sensitive nucleoside transporter (es); settings: growth-inhibitory concentrations
[11] = test system: explants of intact rat colonic mucosa
L1210 TG/R = settings: Thioguanine-resistant L1210 TG/R
[12] = test system: Ehrlich ascites resistant to 5-fluorodeoxyuridine (FUdR); settings: 5-Fluorodeoxyuridine-resistant Ehrlich ascites
Ehrlich ascites (AZU 1) = settings: 6-Azauracil-resistant Ehrlich ascites (AZU 1)
L1210/CA = settings: 1β-D-Arabinofuranosylcytosine-resistant L1210/CA
[13] = test system: Lewis lung carcinoma cells; settings: in vivo
[14] = test system: mouse and human tumor cells
Ehrlich ascites (EAC-R1) = settings: 6-Mercaptopurine-resistant Ehrlich ascites (EAC-R1)
Ehrlich ascites (ETGR1) = settings: Thioguanine-resistant Ehrlich ascites (ETGR1)
[15] = test system: human erythroleukemia cell line (K562)
P815/FU = settings: in vivo
L1210/C95 = settings: in vivo
[16] = test system: hydroxyurea-, vincristine-, VLB-, TSC-, cortisone- and MGGH-resistant mouse leukemias
[17] = test system: L1210 line resistant to MGGH; settings: in vivo
[18] = test system: 13 human cancer cell lines; settings: for effect of tetrahydrouridine on antiproliferative activity: Cyd deaminase inhibitor
dCyd kinase = dCyd kinase (Homo sapiens, UniProt P27707)
dCyd kinase, sequence (P27707 whole entry): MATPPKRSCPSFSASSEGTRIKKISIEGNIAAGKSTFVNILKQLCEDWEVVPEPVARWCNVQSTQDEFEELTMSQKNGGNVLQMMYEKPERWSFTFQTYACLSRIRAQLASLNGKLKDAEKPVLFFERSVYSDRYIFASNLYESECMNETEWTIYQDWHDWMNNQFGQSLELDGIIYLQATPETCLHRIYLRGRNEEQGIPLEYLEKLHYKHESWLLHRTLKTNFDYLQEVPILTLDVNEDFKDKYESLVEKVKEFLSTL

human cancer xenograft = settings: in vivo
[19] = target: purine nucleoside phosphorylase (PNP) (Homo sapiens, UniProt P00491)
purine nucleoside phosphorylase (PNP), sequence (P00491 whole entry, species assumed): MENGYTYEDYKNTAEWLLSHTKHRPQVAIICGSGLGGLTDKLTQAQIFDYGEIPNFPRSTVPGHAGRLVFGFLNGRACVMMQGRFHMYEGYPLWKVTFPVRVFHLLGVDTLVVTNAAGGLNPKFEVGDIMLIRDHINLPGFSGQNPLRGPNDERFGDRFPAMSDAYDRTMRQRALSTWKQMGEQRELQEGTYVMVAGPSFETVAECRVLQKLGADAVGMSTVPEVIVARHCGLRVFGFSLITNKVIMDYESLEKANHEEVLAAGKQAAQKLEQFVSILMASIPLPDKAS

[20] = test system: T-lymphoblasts, B-lymphoblasts
[21] = test system: P388/CPT45 top1-deficient cells
topoisomerase I (top1) = topoisomerase I (top1) (Homo sapiens, UniProt P11387); settings: gemcitabine incorporated immediately 3′ from a top1 cleavage site on the nonscissile strand
topoisomerase I (top1), sequence (P11387 whole entry, species assumed): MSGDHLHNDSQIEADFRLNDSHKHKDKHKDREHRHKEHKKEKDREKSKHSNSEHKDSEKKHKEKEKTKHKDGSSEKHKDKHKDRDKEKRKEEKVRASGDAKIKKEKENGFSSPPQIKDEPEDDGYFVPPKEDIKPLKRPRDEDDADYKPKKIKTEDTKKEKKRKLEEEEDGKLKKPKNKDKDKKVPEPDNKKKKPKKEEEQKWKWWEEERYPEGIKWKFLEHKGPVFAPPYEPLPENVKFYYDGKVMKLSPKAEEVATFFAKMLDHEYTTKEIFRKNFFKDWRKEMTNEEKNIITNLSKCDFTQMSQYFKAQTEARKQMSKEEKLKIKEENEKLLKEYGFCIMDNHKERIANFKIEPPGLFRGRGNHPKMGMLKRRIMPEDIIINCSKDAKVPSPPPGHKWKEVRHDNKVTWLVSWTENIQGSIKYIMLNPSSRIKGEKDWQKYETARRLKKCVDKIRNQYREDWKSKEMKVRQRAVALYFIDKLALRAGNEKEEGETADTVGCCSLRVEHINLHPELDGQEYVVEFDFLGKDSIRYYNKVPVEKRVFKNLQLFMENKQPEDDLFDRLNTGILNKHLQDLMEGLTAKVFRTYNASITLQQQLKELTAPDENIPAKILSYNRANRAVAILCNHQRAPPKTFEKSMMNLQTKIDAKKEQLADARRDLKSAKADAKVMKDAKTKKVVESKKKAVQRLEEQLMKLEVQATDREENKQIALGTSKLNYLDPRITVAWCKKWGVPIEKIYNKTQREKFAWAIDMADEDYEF

[22] = test system: normal primary prostatic epithelial cells; settings: concentrations up to 100 nM
[23] = test system: bone marrow granulopoietic-macrophage progenitor cells; settings: granulopoietic-macrophagic progenitor cells
[24] = test system: drug-resistant P388 leukemias
[25] = test system: human TT cell line derived from MTC; settings: 10, 25 and 50 microg/ml for 24 hours

SMILES: Nc1ncn([C@@H]2O[C@H](CO)[C@@H](O)[C@H]2O)c(=O)n1 [AzCR, 5-azacytidine]
- index of potential carcinogenicity tg alpha [1]: 0.295
- Response to chemotherapeutic drugs: Same as parent line (AKR/r-AzCdR; 5-Aza-2′-deoxycytidine-resistant AKR-r-AzCdr): sensitive; also recorded: AKR-r-AzCdr AzCR

SMILES: COc1nc(N)nc2c1ncn2[C@@H]1O[C@H](CO)[C@@H](O)[C@@H]1O [Nelarabine]
- dose toxicity in the clinical trials [2]: neurotoxicity

SMILES: CCCCCCCC/C=C/CCCCCCCC(=O)OC[C@H]1O[C@@H](n2ccc(N)nc2=O)[C@@H](O)[C@@H]1O [Compound P-4055]
- long-time survivors (>70 days) (Raji Burkitt's lymphoma): three of five
- animals that survived (>80 days) (Raji leukemia): 8 of 10
- tumor response [3]: partial or complete tumor regression
- cellular sensitivity in presence of nitrobenzylmercaptopurine riboside and dipyridamol [4]: not

SMILES: C#C[C@@]1(O)[C@@H](CO)O[C@@H](n2ccc(N)nc2=O)[C@@H]1O [ECyd, 1-(3-C-ethynyl-beta-D-ribo-pentofuranosyl)cytosine]
- IC50 (mouse leukemia L1210): 0.016 µM
- IC50 [5]: 0.028 µM
- 1050 values [6]: nanomolar to micromolar range
- human tumors with potent inhibition [7]: 9 of 11
- cytotoxicity (human tumors [8]; 24 and 72 h exposures): sufficiently potent cytotoxicity
- cytotoxicity (human tumors [8]; 4 h exposure): fairly potent cytotoxicity
- antitumor activity (human tumors [9]): strong antitumor activity without serious toxicity

SMILES: CC(=NNC(=N)N)c1ccc(NC(=O)Nc2ccc(C(C)=NNC(=N)N)cc2)cc1 [DDUG, 4′,4′-diacetyldipenylurea bis(guanylhydrazone)]
- Response to chemotherapeutic drugs: Cross-resistant (L1210-ara-C): DDUG

SMILES: O=c1[nH]cc(F)c(=O)[nH]1 [5-fluorouracil]
- human tumors with potent inhibition [7]: only one tumor
- expression of es [10]: increases
- incorporation of tritiated TdR into DNA [11]: not altered
- levels of tritiated deoxyuridine [11]: reduced
- Response to chemotherapeutic drugs: Cross-resistant (L1210 TG/R): 5-Fluorouracil
- Response to chemotherapeutic drugs: Cross-resistant [12]: 5-Fluorouracil
- Response to chemotherapeutic drugs: collaterally sensitive (Ehrlich ascites (AZU 1)): 5-Fluorouracil
- Response to chemotherapeutic drugs: collaterally sensitive (Ehrlich ascites (AZU 1); listed as FU): collaterally sensitive

SMILES: CC(C=NNC(=N)N)=NNC(=N)N [MGGH, methylglyoxal bis(guanylhydrazone)]
- Response to chemotherapeutic drugs: Same as parent line (L1210/CA): MGGH
- Response to chemotherapeutic drugs: Same as parent line (L1210-ara-C): MGGH

SMILES: [C-]#[N+][C@H]1[C@H](O)[C@@H](CO)O[C@H]1n1ccc(N)nc1=O [Compound 8, 2′-Deoxy-2′-isocyano-1-beta-D-arabinofuranosylcytosine]
- tumor volume inhibition [13]: only moderate tumor volume inhibition
- cytotoxicity [14]: moderately cytotoxic

SMILES: CSc1ncnc2c1ncn2[C@@H]1O[C@H](CO)[C@@H](O)[C@H]1O [Compound 6-MeMPR, 6-methyl thio-purine ribonucleoside]
- Response to chemotherapeutic drugs: Same as parent line (L1210/MP(III); 6-Mercaptopurine-resistant L1210/MP(III)): retained sensitivity and 6-MeMPR
- Response to chemotherapeutic drugs: Cross-resistant (Ehrlich ascites (EAC-R1)): partially cross-resistant and 6-MeMPR^b
- Response to chemotherapeutic drugs: Cross-resistant (Ehrlich ascites (ETGR1)): partially cross-resistant and 6-MeMPR^b

SMILES: Nc1ccn([C@@H]2O[C@H](CO)[C@@H](O)[C@@H]2O)c(=O)n1 [Ara-C, 1-β-D-Arabinofuranosylcytosine]
- mean survival time (Raji Burkitt's lymphoma): 13.2 days
- animals that survived (>80 days) (Raji leukemia): none
- mean survival time (Raji leukemia): 34.2 days
- cellular sensitivity in presence of nitrobenzylmercaptopurine riboside and dipyridamol [4]: reduced strongly
- resistance of K562R to ara-C compared with K562S ([15]; 3H-dThd incorporation, MTT dye reduction and clonogenicity): approximately 15 fold
- ara-CTP accumulated by K562S versus K562R ([15]; 4-h exposure, 10 microM): seven times more
- more ara-C incorporated into DNA by K562S versus K562R ([15]; 4-h exposure, 10 microM): approximately 250%
- expression of es [10]: no significant increase
- Response to chemotherapeutic drugs: Same as parent line (Sarcoma 180; in vivo): Ara-C
- Response to chemotherapeutic drugs: Same as parent line (L1210/MP(III); mouse, in vivo): retained sensitivity; also recorded: Ara-C
- Response to chemotherapeutic drugs: Same as parent line (P815/FU): retained the same sensitivity; also recorded: Ara-C
- response of L1210/C95 to the drug (L1210/C95): sensitive
- activity against drug-resistant mouse leukemias [16]: active
- response of MGGH-resistant L1210 line to the drug [17]: collaterally sensitive
- Response to chemotherapeutic drugs: Cross-resistant (AKR/r-AzCR; mouse, in vivo): cross-resistant; also recorded: Ara-C
- Response to chemotherapeutic drugs: Cross-resistant (AKR/r-AzCdR; mouse, in vivo): cross-resistant; also recorded: Ara-C

SMILES: C=C1[C@H](n2ccc(N)nc2=O)O[C@H](CO)[C@H]1O [DMDC, 2′-deoxy-2′-methylidenecytidine]
- suppression of the antiproliferative activity of DMDC by dCyd [18]: up to 150 fold
- effect of tetrahydrouridine on antiproliferative activity [18]: reduced
- VmaxKm for dCyd kinase, lower than that for dCyd (dCyd kinase): 8 fold
- efficacy in tumors with higher levels of Cyd deaminase (human cancer xenograft): highly effective
- efficacy in tumors with lower levels of Cyd deaminase (human cancer xenograft): only slight activity

SMILES: Nc1ncn([C@H]2C[C@H](O)[C@@H](CO)O2)c(=O)n1 [AzCdR, 5-aza-2′-deoxycytidine]
- Response to chemotherapeutic drugs: Cross-resistant (AKR/r-AzCR; 5-Azacytidine-resistant AKR/r-AzCR): cross-resistant; also recorded: AzCdR

SMILES: Nc1nc2c(ncn2[C@@H]2O[C@H](CO)[C@@H](O)[C@@H]2O)c(=O)[nH]1 [araG, N-9-[β-D-Arabinofuranosyl]guanine]
- degradation by purine nucleoside phosphorylase (PNP) [19]: relatively resistant
- efficiency in T-lymphoblasts compared to B-lymphoblasts [20]: higher efficiency

SMILES: Nc1ccn([C@@H]2O[C@H](CO)[C@@H](O)C2(F)F)c(=O)n1 [gemcitabine, 2′,2′difluoro-2′deoxycytidine]
- resistance of P388/CPT45 top1-deficient cells to gemcitabine [21]: 5 fold
- top1-mediated DNA cleavage (topoisomerase I (top1)): enhanced
- dFdC concentration of maximal inhibition of proliferation and colony formation (LNCaP, PC-3 and DU-145; LNCaP, PC-3, DU-145): 30 nM
- gemcitabine concentration inhibiting colony formation by two thirds (LNCaP, PC-3 and DU-145; prostatic tumor cells): about 3.5 nM
- inhibitory effects in normal primary prostatic epithelial cells [22]: no inhibitory effects
- gemcitabine concentration inhibiting colony formation by two thirds [23]: 9 nM
- response rate with the drug alone (ovarian cancer; previously treated patients): around 13%
- response rate for the drug alone (ovarian cancer; previously untreated patients with poor prognostic features): 24%
- overall response rate (advanced sarcomas; 1250 mg/m(2) i.v. weekly × three, q28 days): 3%
- median time-to progression (advanced sarcomas; in vivo): 2.1 months
- patients who discontinued treatment due to toxicity/refusal (advanced sarcomas; in vivo): 14%
- hematologic toxicities > or = Grade 3, patients (advanced sarcomas; leukopenia and thrombocytopenia): 32%
- effect of tetrahydrouridine on antiproliferative activity [18]: increased to some extent
- efficacy in tumors with higher levels of Cyd deaminase (human cancer xenograft): only slightly active
- cross resistance to gemcitabine ([24]; P388 resistant to 1-beta-D-arabinofuranosylcytosine): cross resistant
- cross resistance to gemcitabine ([24]; P388 resistant to vincristine, cyclophosphamide, melphalan, cisplatin, methotrexate): not cross resistant
- cross resistance to gemcitabine ([24]; multidrug-resistant P388 (resistant to doxorubicin or etoposide)): no cross resistance
- influence on proliferative activity of TT cells [25]: concentration-dependent inhibitory influence

SMILES: Nc1nc(N)c2ccc(CNc3ccc(C(=O)N[C@@H](CC(=O)O)C(=O)O)cc3)cc2n1 [Quinaspar]
- Response to chemotherapeutic drugs: collaterally sensitive (Sarcoma 180; 6-Mercaptopurine-resistant Sarcoma 180): Quinaspar
